This note sets out measurements from patent US12065424B1, “6′(4-methoxyphenyl)-2′-alkoxy-3,4′-bipyridine-3′-carbonitrile as antimicrobial compounds” (KING FAISAL UNIVERSITY, priority 2023, dated 2024).

SMILES strings stand for the structures.

Assay type in all cases: cell-based
The test system of one experiment is Pseudomonas aeruginosa. The experiment in a line: Agar plate disc-diffusion, antibacterial inhibition zone. The conditions noted are these: nutrient agar, 37° C., 48 h, DMSO zone subtracted. The procedure: (§1) The agar plate disc-diffusion method was applied. Sterilized filter papers (6 mm in diameter) were wetted with 10 μL of a solution of 6′-(4-methoxyphenyl)-2′-ethoxy-3,4′-bipyridine-3′-carbonitrile (4) or 6′-(4-methoxyphenyl)-2′-methoxy-3,4′-bipyridine-3′-carbonitrile (5) to be tested, containing […] in DMSO, and the discs were allowed to air dry. The discs were then placed onto the surface of agar plates (nutrient agar for bacteria and Sabouraud's dextrose agar for fungi) seeded with the test organism. Each plate contained 15 mL of the agar medium, previously seeded with 0.2 mL of the broth culture of each organism pregrown for 18 hours. The plates were incubated at 37° C. for 48 h, and 72 h for fungi. The inhibition zones were measured in mm. Discs impregnated with DMSO were used as a control, and its inhibition zone was subtracted from the tested compound actual inhibition zone.
(§2) The results of the antimicrobial testing can be observed in Tables 1 and 2, below, using ciprofloxacin as a reference.
On the technique in general: A growth-free zone around the sample is the usual read-out of agar diffusion tests.

Another experiment deals with Staphylococcus aureus. The description is as above. The conditions noted are these: nutrient agar, 37° C., 48 h, DMSO zone subtracted. Here is the method: as §1, §2
Another experiment relates to Bacillus Cereus. Described as above. The conditions noted are these: nutrient agar, 37° C., 48 h, DMSO zone subtracted. Here is the method:
as §1, §2

The subject of another experiment is Escherichia coli. The description is as above. The conditions noted are these: nutrient agar, 37° C., 48 h, DMSO zone subtracted. The procedure: as §1, §2
Experiment [1] has as its system Chrysosporium keratinophilum. The experiment in a line: Agar plate disc-diffusion, antifungal inhibition zone. The note with it: Sabouraud's dextrose agar, 37° C., 72 h, DMSO zone subtracted. The procedure:
as §1, §2

Another experiment deals with Aspergillus flavus. The description is as above. The note with it: Sabouraud's dextrose agar, 37° C., 72 h, DMSO zone subtracted. Here is the method:
as §1, §2

The subject of the next experiment is different microbes. The experiment is described as follows: Antimicrobial activity, overall statement on Tables 1 and 2. The note with it: summary of Tables 1 and 2, bacteria and fungi. Here is the method:
as §1
Their antibacterial activity was screened against gram positive bacteria namely Bacillus cereus and Staphylococcus aureus and gram-negative bacterial strains namely Pseudomonas aeruginosa and Escherichia coli, while their antifungal activity was screened against Aspergillus flavus and Chrysosporium keratinophilum.

Where [2] appears, read: A = concentration of comp. = 10,000 μL.
Where [3] appears, read: B = concentration of comp. = 30.000 μL.
The mark [4] stands for this setting: C = concentration of comp. = 50,000 μL.

Regarding `O=C(O)c1cn(C2CC2)c2cc(N3CCNCC3)c(F)cc2c1=O` [Cip., ciprofloxacin, reference compound], the inhibition zone is given as 29 mm in the experiment with Pseudomonas aeruginosa (setting [2]); 30 mm with Pseudomonas aeruginosa (setting [3]); 53 mm in the experiment with Pseudomonas aeruginosa (setting [4]); 43 mm in the experiment with Staphylococcus aureus (setting [2]); 44 mm in the experiment on Staphylococcus aureus (setting [3]); 53 mm with Staphylococcus aureus (setting [4]). Also, the inhibition zone came out at 29 mm with Bacillus Cereus (setting [2]); 30 mm with Bacillus Cereus (setting [3]); 42 mm in the experiment with Bacillus Cereus (setting [4]); 30 mm in the experiment with Escherichia coli (setting [2]); 39 mm in the experiment with Escherichia coli (setting [3]); 60 mm with Escherichia coli (setting [4]). Moreover, the inhibition zone in experiment [1] (setting [2]) was 29 mm; in experiment [1] (setting [3]) it was 30 mm; in experiment [1] (setting [4]), 53 mm; in the experiment with Aspergillus flavus (setting [2]) it was 29 mm; in the experiment with Aspergillus flavus (setting [3]), 30 mm; with Aspergillus flavus (setting [4]), 42 mm.
Turning to `CCOc1nc(-c2ccc(OC)cc2)cc(-c2cccnc2)c1C#N` [Compound 4, 6′-(4-methoxyphenyl)-2′-ethoxy-3,4′-bipyridine-3′-carbonitrile], in the experiment on different microbes, the “antimicrobial activities (in words)” value is “high antimicrobial activities”. Besides, the inhibition zone came to 25 mm in the experiment on Pseudomonas aeruginosa (setting [2]); 28 mm in the experiment with Pseudomonas aeruginosa (setting [3]); 41 mm in the experiment with Pseudomonas aeruginosa (setting [4]); 17 mm in the experiment on Staphylococcus aureus (setting [2]); 21 mm in the experiment with Staphylococcus aureus (setting [3]); 31 mm with Staphylococcus aureus (setting [4]). In addition, the inhibition zone with Bacillus Cereus (setting [2]) was 19 mm; with Bacillus Cereus (setting [3]), 25 mm; in the experiment on Bacillus Cereus (setting [4]), 32 mm; in the experiment with Escherichia coli (setting [2]), 26 mm; with Escherichia coli (setting [3]), 36 mm; with Escherichia coli (setting [4]), 49 mm. For the same molecule, the inhibition zone in experiment [1] (setting [2]) is recorded as 25 mm; in experiment [1] (setting [3]), 28 mm; in experiment [1] (setting [4]), 46 mm; in the experiment on Aspergillus flavus (setting [2]), 23 mm; in the experiment on Aspergillus flavus (setting [3]), 27 mm; in the experiment with Aspergillus flavus (setting [4]) it was 38 mm.
Consider `COc1ccc(-c2cc(-c3cccnc3)c(C#N)c(OC)n2)cc1` [Compound 5, 6′-(4-methoxyphenyl)-2′-methoxy-3,4′-bipyridine-3′-carbonitrile], for which the “antimicrobial activities (in words)” value in the experiment on different microbes is “high antimicrobial activities”. The inhibition zone with Pseudomonas aeruginosa (setting [2]) was determined as 23 mm; in the experiment on Pseudomonas aeruginosa (setting [3]) it was 31 mm; in the experiment on Pseudomonas aeruginosa (setting [4]), 39 mm; with Staphylococcus aureus (setting [2]), 19 mm; in the experiment with Staphylococcus aureus (setting [3]) it was 27 mm; in the experiment on Staphylococcus aureus (setting [4]), 32 mm. The inhibition zone in the experiment with Bacillus Cereus (setting [2]) was determined as 23 mm; in the experiment with Bacillus Cereus (setting [3]) it was 25 mm; with Bacillus Cereus (setting [4]) it was 37 mm; in the experiment with Escherichia coli (setting [2]) it was 27 mm; in the experiment on Escherichia coli (setting [3]), 37 mm; in the experiment on Escherichia coli (setting [4]), 50 mm. Besides, the inhibition zone came out at 27 mm in experiment [1] (setting [2]); 28 mm in experiment [1] (setting [3]); 49 mm in experiment [1] (setting [4]); 24 mm in the experiment on Aspergillus flavus (setting [2]); 26 mm in the experiment with Aspergillus flavus (setting [3]); 39 mm with Aspergillus flavus (setting [4]).
